Data as given in patent US8389526B2, “3-heteroarylmethyl-imidazo[1,2-b]pyridazin-6-yl derivatives” (Novartis AG, priority 2009, dated 2013).

Columns and labels:
[1] = target: T1, c-Met receptor tyrosine kinase, GST-c-Met(969-1390) (Homo sapiens, UniProt P08581); assay: EPK c-Met profiling assay (LanthaScreen TR-FRET kinase assay); assay type: biochemical; conditions: 2 μM ATP, 0.3 nM enzyme, 60 minutes at room temperature
T1 construct: made in house
Protocol: A number of compounds of the present invention were assayed in an antibody based kinase phosphorylation assay as follows.
Epk c-Met Profiling Assay:
The EPK kinase assay for c-Met receptor tyrosine kinase was developed, using the purified recombinant GST-fusion protein, containing the cytoplasmic domain of the enzyme. GST-c-Met(969-1390) was purified by affinity chromatography.
The kinase assay is based on the LanthaScreen™ technology. LanthaScreen™ is the detection of Time-Resolved Fluorescence Resonance Energy Transfer (TR-FRET) using lanthanide chelates to measure interactions between various binding partners. In a TR-FRET kinase assay, a long-lifetime lanthanide donor species is conjugated to an antibody that specifically binds to a phosphorylated product of a kinase reaction that is labeled with a suitable acceptor fluorophore. This antibody-mediated interaction brings the lanthanide donor and the acceptor into proximity such that resonance energy transfer can take place, resulting in a detectible increase in the FRET signal.
The kinase reactions were performed in 384 well microtiter plates in a total reaction volume of 9.05 μL. The assay plates were prepared with 0.05 μL per well of test compound in the appropriate test concentration, as described under “preparation of compound dilutions”. The reactions were started by combining 4.5 μL of ATP solution with 4.5 μL of enzyme-substrate mix (consisting of kinase and substrate). The final concentrations in the kinase reactions were 35 mM Tris/HCl, 1 mM DTT, 0.025% Tween20, 10 μM sodium orthovanadate, 0.25% BSA, 0.6% DMSO, 10 mM MgCl2, 3 mM MnCl2, 2 μM ATP, 50 nM Fluorescein-PolyEAY, and 0.3 nM enzyme.
The reactions were incubated for 60 minutes at room temperature and stopped by adding 4.5 μL of stop buffer (50 mM EDTA, 0.04% NP40, 20 mM Tris/HCl).
Subsequently 4.5 μL of detection mix (50 mM Tris/HCl, 2 mM DTT, 0.05% Tween20, 20 μM sodium orthovanadate, 1% BSA, 1.72 μg/mL Tb-PY20 antibody) were added to the stopped reactions. After 30 minutes incubation at room temperature, the plates were measured in a BMG Pherastar fluorescence reader. The effect of compound on the enzymatic activity was in all assays obtained from the linear progress curves and determined from one reading (end point measurement).
Preparation of Compound Dilutions
Test compounds were dissolved in DMSO (10 mM) and transferred into 1.4 mL flat bottom or V-shaped Matrix tubes carrying a unique 2D matrix. The stock solutions were stored at −20° C. if not used immediately. For the test procedure the vials were defrosted and identified by a scanner whereby a working sheet was generated that guided the subsequent working steps.
Compound dilutions were made in 96 well plates. This format enabled the assay of maximally 40 individual test compounds at 8 concentrations (single points) including 4 reference compounds. The dilution protocol included the production of “pre-dilution plates”, “master plates” and “assay plates”.
Pre-dilution plates: 96 polypropylene well plates were used as pre-dilution plates. A total of 4 pre-dilution plates were prepared including 10 test compounds each on the plate positions A1-A10, one standard compound at A11 and one DMSO control at A12. All dilution steps were done on a HamiltonSTAR robot.
Master plates: 100 μL of individual compound dilutions including standard compound and controls of the 4 “pre-dilution plates” were transferred into a 384 “master plate” including the following concentrations 1′820, 564, 182, 54.6, 18.2, 5.46, 1.82 and 0.546 μM, respectively in 90% of DMSO.
Assay plates: Identical “assay plates” were then prepared by pipetting 50 nL each of compound dilutions of the “master plates” into 384-well “assay plates” by means of a HummingBird 384-channel dispenser. These plates were used directly for the assay which was performed in a total volume of 9.05 μL. […]

[2] = target: T2, c-Met (Homo sapiens, UniProt P08581); assay: GTL-16 c-Met autophosphorylation measured by AlphaScreen detection; assay type: cell-based; conditions: GTL-16 cells, 1 h incubation, AlphaScreen p-c-Met; read-out: GTL-16 IC50 c-Met phosphorylation
T2 construct: adapted to measure the phosphorylation of endogenous cellular proteins in cell lysates; endogenous in cells; host or cells: GTL-16
Protocol: (§1) C-Met Dependent Cellular Assays
(§2) A number of compounds of the present invention were assayed in a c-Met dependent proliferation and phosphorylation assay as follows.
GTL-16 c-Met autophosphorylation measured by AlphaScreen® detection: the human MET-amplified gastric cancer cells GTL-16 were plated in 384-well plates at a density of 10′000 cells in 20 ul complete growth medium (DMEM high glucose supplemented with 10% (v/v) heat inactivated fetal calf serum and of 1 mM sodium pyruvate) and were incubated at […]/5% CO2/95% humidity for 20 h. The cells were washed and the 30 ul assay buffer (DMEM high glucose, 1 mM sodium pyruvate, 0.1% bovine serum albumine) was added. Compounds were diluted in 384-well compound plates to obtain 8-point serial dilutions for 40 test compounds in 90% DMSO, as well as a reference compound plus 16 high- and 16 low (inhibited) controls. These compound plates were prediluted 1:200 in assay buffer into a compound predilution plate and 10 ul of prediluted compound solution were transferred to the cell plate using a 384-well pipettor, resulting in a final DMSO concentration of 0.11%. Cells were incubated for 1 h at […]/5% CO2/95% humidity. The supernatant was removed, the cells were lysed in 25 ul of RIPA [radio immuno precipitation assay] lysis buffer supplemented with 2 mM sodium vanadate and a protease inhibitor cocktail, and cell plates were stored at −80° C.
For detection of p-c-Met, an AlphaScreen®-based assay was used. AlphaScreen® (Amplified Luminescent Proximity Homogeneous Assay, ALPHA, Perkin Elmer, U.S.A) is a non-radioactive bead-based proximity assay technology to study biomolecular interactions in a homogenous microtiter plate format. This technique has been adapted to measure the phosphorylation of endogenous cellular proteins in cell lysates by the use of specific antibody pairs against the total protein and a phospho-specific epitope. 5 ul of cell lysate was transferred to 384-well low volume Proxiplates for detection using a 384-well pipettor. First, 5 ul of a premix of an anti-c-Met antibody (0.25 ug/ml f.c.), a biotinylated PY20 antibody (phosphotyrosine antibody, 0.05 ug/ml f.c.) and AlphaScreen® Protein A-coupled acceptor beads (10 ug/ml f.c.) in RIPA buffer supplemented with 0.25% (v/w) TOP BLOCK, 2 mM sodium vanadate, and a protease inhibitor cocktail and was added, the plate was sealed, and incubated on a plate shaker for 2 hours at room temperature. Second, 2 ul of dilution buffer containing AlphaScreen® Streptavidin-coated donor beads (10 ug/ml f.c.) in RIPA buffer was added, and the plate was incubated on plate shaker as above for a further 2 hours. The plate was read on an AlphaScreen® compatible plate reader, using standard AlphaScreen® settings.

[3] = system: MET-amplified gastric cancer cell line GTL-16; assay: GTL-16 proliferation assay (MTS); assay type: cell-based; conditions: Homo sapiens, GTL-16 cells, 72 h incubation
Protocol: as §1, §2
GTL-16 proliferation assay: the MET-amplified gastric cancer cell line GTL-16 was grown under standard cell culture conditions in DMEM [Dulbecco's Modified Eagle Medium] (high glucose) supplemented with 10% heat-inactivated fetal calf serum and 2 mM L-glutamine. For proliferation assays, cells were seeded at 3000 per well in 96-well-plates. 24 h later, a 10-point dilution series of each compound (3-fold steps, ranging from […]) was prepared in DMSO. Compound were then diluted 1000-fold in growth media in two steps and added to cells in triplicates, resulting in a final volume of […] per well and maximal final compound concentrations of […]. A DMSO-only control was included. Cells were incubated for 72 h and the amount of viable cells was then measured by adding […] of MTS reagent (CellTiter 96® AQueous Non-Radioactive Cell Proliferation Assay, Promega), further incubation for 30′, and reading the optical density at 490 nm.

T1 sequence (P08581 969-1390): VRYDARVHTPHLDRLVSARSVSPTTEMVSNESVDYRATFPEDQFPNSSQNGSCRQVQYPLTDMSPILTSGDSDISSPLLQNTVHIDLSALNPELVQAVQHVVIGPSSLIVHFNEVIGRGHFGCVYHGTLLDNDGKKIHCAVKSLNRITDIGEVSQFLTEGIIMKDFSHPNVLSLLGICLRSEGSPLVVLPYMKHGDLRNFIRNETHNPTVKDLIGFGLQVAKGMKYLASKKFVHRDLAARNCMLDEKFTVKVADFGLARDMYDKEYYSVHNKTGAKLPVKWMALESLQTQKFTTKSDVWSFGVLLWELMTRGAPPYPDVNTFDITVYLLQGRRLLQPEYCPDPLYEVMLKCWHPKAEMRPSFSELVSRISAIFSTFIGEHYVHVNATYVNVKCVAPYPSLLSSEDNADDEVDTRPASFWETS
T2 sequence (P08581 25-1390): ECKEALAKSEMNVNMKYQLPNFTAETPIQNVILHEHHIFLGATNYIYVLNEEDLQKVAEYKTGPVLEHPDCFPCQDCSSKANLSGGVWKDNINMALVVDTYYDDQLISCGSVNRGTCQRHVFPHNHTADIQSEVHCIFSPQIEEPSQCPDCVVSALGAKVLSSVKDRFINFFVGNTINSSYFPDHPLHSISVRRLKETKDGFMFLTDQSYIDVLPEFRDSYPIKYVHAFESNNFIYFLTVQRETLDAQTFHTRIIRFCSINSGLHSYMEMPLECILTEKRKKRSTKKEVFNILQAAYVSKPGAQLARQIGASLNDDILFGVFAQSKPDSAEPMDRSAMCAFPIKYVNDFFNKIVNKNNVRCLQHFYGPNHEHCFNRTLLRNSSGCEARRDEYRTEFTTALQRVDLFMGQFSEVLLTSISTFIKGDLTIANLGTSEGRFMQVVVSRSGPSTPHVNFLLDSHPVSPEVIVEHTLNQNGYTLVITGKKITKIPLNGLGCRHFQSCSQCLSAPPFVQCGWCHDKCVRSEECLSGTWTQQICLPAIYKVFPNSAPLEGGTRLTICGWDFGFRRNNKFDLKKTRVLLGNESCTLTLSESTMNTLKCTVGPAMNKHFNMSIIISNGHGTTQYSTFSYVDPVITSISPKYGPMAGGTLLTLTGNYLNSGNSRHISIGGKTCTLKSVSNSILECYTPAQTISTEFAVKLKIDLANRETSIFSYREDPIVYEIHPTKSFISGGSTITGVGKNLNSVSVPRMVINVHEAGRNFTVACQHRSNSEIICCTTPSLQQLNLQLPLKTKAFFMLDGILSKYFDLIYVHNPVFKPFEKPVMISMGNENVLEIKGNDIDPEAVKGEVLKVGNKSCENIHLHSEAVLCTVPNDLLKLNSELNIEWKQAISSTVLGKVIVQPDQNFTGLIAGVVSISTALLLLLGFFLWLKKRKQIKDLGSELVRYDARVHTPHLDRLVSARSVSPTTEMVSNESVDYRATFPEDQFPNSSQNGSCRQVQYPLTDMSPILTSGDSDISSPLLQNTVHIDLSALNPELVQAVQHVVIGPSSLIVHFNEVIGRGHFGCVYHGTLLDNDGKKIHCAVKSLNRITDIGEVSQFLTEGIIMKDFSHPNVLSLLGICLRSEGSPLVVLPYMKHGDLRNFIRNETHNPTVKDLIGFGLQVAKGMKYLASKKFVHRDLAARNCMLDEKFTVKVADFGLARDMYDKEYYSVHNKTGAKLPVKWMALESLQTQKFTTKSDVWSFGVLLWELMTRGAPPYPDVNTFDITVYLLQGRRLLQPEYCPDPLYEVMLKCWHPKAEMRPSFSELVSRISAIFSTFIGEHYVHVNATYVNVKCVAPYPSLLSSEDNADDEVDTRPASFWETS

| SMILES | IC50 [1] [nM] | IC50 [2] [nM] | IC50 [3] [nM] |
| --- | --- | --- | --- |
| CC(c1c(F)cc2ncccc2c1F)c1cnc2ccc(N3CCN(C)C(=O)C3)nn12 (racemic) [Example 1, (rac)-4-{3-[1-(5,7-Difluoro-quinolin-6-yl)-ethyl]-imidazo[1,2-b]pyridazin-6-yl}-1-methyl-piperazin-2-one] | 8.6 | < 3 | 9.1 |
| CC(c1c(F)cc2ncccc2c1F)c1cnc2ccc(N3CCNC(=O)C3)nn12 (racemic) [Example 3, (rac)-4-{3-[1-(5,7-Difluoro-quinolin-6-yl)-ethyl]-imidazo[1,2-b]pyridazin-6-yl}-piperazin-2-one] | 5.2 | < 3 | 6 |
| CC(c1c(F)cc2ncccc2c1F)c1cnc2ccc(N3CCNCC3)nn12 (racemic) [Example 6, (rac)-5,7-Difluoro-6-[1-(6-piperazin-1-yl-imidazo[1,2-b]pyridazin-3-yl)-ethyl]-quinoline] | 4.5 | 3 | 11.6 |
| CC(c1c(F)cc2ncccc2c1F)c1cnc2ccc(N3CCN(C)CC3)nn12 (racemic) [Example 8, (rac)-5,7-Difluoro-6-{1-[6-(4-methyl-piperazin-1-yl)-imidazo[1,2-b]pyridazin-3-yl]-ethyl}-quinoline] | 5.7 | < 3 | 15.5 |
| CC(=O)N1CCN(c2ccc3ncc(C(C)c4c(F)cc5ncccc5c4F)n3n2)CC1 (racemic) [Example 10, (rac)-1-(4-{3-[1-(5,7-Difluoro-quinolin-6-yl)-ethyl]-imidazo[1,2-b]pyridazin-6-yl}-piperazin-1-yl)ethanone] | < 3 | < 3 | 14.6 |
| CC(c1c(F)cc2ncccc2c1F)c1cnc2ccc(N3CCN(C=O)CC3)nn12 (racemic) [Example 12, (rac)-4-{3-[1-(5,7-Difluoro-quinolin-6-yl)-ethyl]-imidazo[1,2-b]pyridazin-6-yl}-piperazine-1-carbaldehyde] | 8 | – | – |
| COC(=O)N1CCN(c2ccc3ncc(C(C)c4c(F)cc5ncccc5c4F)n3n2)CC1 (racemic) [Example 14, (rac)-4-{3-[1-(5,7-Difluoro-quinolin-6-yl)-ethyl]-imidazo[1,2-b]pyridazin-6-yl}-piperazine-1-carboxylic acid methyl ester] | 7.9 | – | – |
| CC(c1c(F)cc2ncccc2c1F)c1cnc2ccc(N3CCN(C(N)=O)CC3)nn12 (racemic) [Example 15, (rac)-4-{3-[1-(5,7-Difluoro-quinolin-6-yl)-ethyl]-imidazo[1,2-b]pyridazin-6-yl}-piperazine-1-carboxylic acid amide] | 5.4 | 8.3 | 18 |
| CC(c1c(F)cc2ncccc2c1F)c1cnc2ccc(N3CCNC(=O)C3C)nn12 (racemic) [Example 18, (rac)-4-{3-[1-(5,7-Difluoro-quinolin-6-yl)-ethyl]-imidazo[1,2-b]pyridazin-6-yl}-3-methyl-piperazin-2-one] | 8.3 | – | 9.2 |
| C[C@H](c1c(F)cc2ncccc2c1F)c1cnc2ccc(N3CCNC(=O)C3)nn12 (single isomer, unassigned) [Example 4] | 680 | – | – |
| CN1CCN(c2ccc3ncc(Cc4cc5cccnc5cc4F)n3n2)CC1=O [Example 37, 4-[3-(7-Fluoro-quinolin-6-ylmethyl)-imidazo[1,2-b]pyridazin-6-yl]-1-methyl-piperazin-2-one] | 58 | – | – |
| O=C1CN(c2ccc3ncc(Cc4cc5cccnc5cc4F)n3n2)CCN1 [Example 38, 4-[3-(7-Fluoro-quinolin-6-ylmethyl)-imidazo[1,2-b]pyridazin-6-yl]-piperazin-2-one] | 31 | – | – |
| CC(=O)N1CCN(c2ccc3ncc(Cc4cc5cccnc5cc4F)n3n2)CC1 [Example 39, 1-{4-[3-(7-Fluoro-quinolin-6-ylmethyl)-imidazo[1,2-b]pyridazin-6-yl]-piperazin-1-yl}-ethanone] | 84 | – | – |
| CN1CCN(c2ccc3ncc(Cc4ccc5ncccc5c4F)n3n2)CC1=O [Example 43, 4-[3-(5-Fluoro-quinolin-6-ylmethyl)-imidazo[1,2-b]pyridazin-6-yl]-1-methyl-piperazin-2-one] | 84 | – | – |
| CC(=O)N1CCN(c2ccc3ncc(Cc4ccc5ncccc5c4F)n3n2)CC1 [Example 45, 1-{4-[3-(5-Fluoro-quinolin-6-ylmethyl)-imidazo[1,2-b]pyridazin-6-yl]-piperazin-1-yl}-ethanone] | 170 | – | – |
| CC(=O)N1CCN(c2ccc3ncc(Cc4c(F)cc5c(cnn5C)c4F)n3n2)CC1 [Example 55, 1-(4-(3-((4,6-difluoro-1-methyl-1H-indazol-5-yl)methyl)imidazo[1,2-b]pyridazin-6-yl)piperazin-1-yl)ethanone] | 29 | – | – |
